Consider 2 compounds from patent EP3744328B1, “USES OF OXADIAZINE COMPOUNDS” (Valoralia I Más D, S.L.U., priority 2019, dated 2020).

pIC50: −log10 of the molar value.

Data set [1] concerns THP-1 cell. The data set can be described thus: Cytotoxic activity assay. To be noted: 48 h, at the tested concentrations. Format: cell-based. Here is the method: Cytotoxic activity assays. THP-1 cell was seeded in 96-well plates at a density of 5x10^4 cells/well and NIH/3T3 cells were seeded in 96-well plates at a density of 5x10^3 cells/well both incubated overnight at 37°C in a humidified atmosphere of 5% CO2. Subsequently, cells were treated with test compounds at the indicated concentrations and DMSO as control for 24 h. The test compounds were dissolved in DMSO (stock solution) and diluted with medium to a final DMSO concentration of 0.2%. MTT solution (50 µL, 7 mg/mL in PBS) was added to each well and plates were incubated for an additional 2 h. Next, the medium was removed and 100 µL of DMSO was added to each well to dissolve the formazan crystals that formed. The absorbance was measured at 590 nm using a spectrophotometric ELISA plate reader (SpectraMax® i3, Molecular Devices, CA, USA). Samples were considered nontoxic for the THP-1 and NIH/3T3 cell line when cell viability was ≥90%.
To analyse the cytotoxic activities of the test compound, THP-1 and NIH/3T3 cells were incubated with ODZN for 48 h and cytotoxicity was measured by fluorescence microscopy using an Incuyte microscope. […] (Figure 1).

Data set [2] is described as follows: Total antioxidant activity assay (DPPH free radical assay, cell-free). Here is the method:
Total antioxidant activity assay. […] DPPH (1,1-Diphenyl-2-[…]) is a purple coloured stable free radical that is reduced to the yellow-coloured diphenylpicrylhydrazine. In a volume of 1 mL of methanol the test samples are mixed with DPPH 0.125 mM. Trolox (200 µM) is included as a positive control. After 30 min of incubation at room temperature in the dark the absorbance measurements are read at 517 nm using Thermo Scientific Genesys 10 uv scanning spectrophotometer. Lower absorbance of the reaction mixtures indicated higher free radical-scavenging activity. DPPH radical-scavenging activity is calculated according to the following formula: %Antioxidant activity = [(Ac−As)/Ac] × 100 [formula]
Where Ac (control) is the absorbance of the control reaction (DPPH) and As (sample) is the absorbance of DPPH and sample.
On the technique in general: Loss of DPPH colour is used to gauge radical scavenging.

Data set [3] deals with THP-1 cell. The data set can be described thus: Cellular antioxidant activity assay (TBHP-induced ROS production, DCFH-DA probe) in THP-1. It counts as cell-based. The conditions noted are these: Homo sapiens, intracellular ROS induced by TBHP. Here is the method: Cellular antioxidant activity assays. The intracellular accumulation of ROS is detected by fluorimetry using 2',7'-[…] (DCFH-DA). The THP-1 cell (1x10^5 cells/well) are cultured in a 96-well black plate in DMEM supplemented with 10% FBS; culture medium is renewed when the cells reached 80% confluence. For inhibition, the cells are pre-incubated with the test substances for 30 min and treated with 0,4 mM Tert-butylhydroperoxide (TBHP). After 3 h the cells are incubated with 10 µM DCFH-DA in the culture medium at 37°C for 30 min.
The acetate groups on DCFH-DA are removed by an intracellular esterase, trapping the probe inside the THP-1 cell. Then, the cells are washed with PBS at 37°C and the production of ROS measured by changes in fluorescence due to the intracellular accumulation of DCF caused by the oxidation of DCFH. Intracellular ROS, as indicated by DCF fluorescence is detected using the Incucyte FLR software; the data are analyzed by the total green object integrated intensity (GCU x µm^2 x well) of the imaging system IncuCyte HD (Essen BioScience).

In data set [4] the test system is NIH/3T3 cell. The data set can be described thus: Cellular antioxidant activity assay (TBHP-induced ROS production, DCFH-DA probe) in NIH/3T3. Format: cell-based. To be noted: Mus musculus, NIH3T3, intracellular ROS induced by TBHP.
In data set [5] the test system is TNF-α. The data set can be described thus: TNF-α activity assay (ELISA) in THP-1. It counts as cell-based. The conditions noted are these: Homo sapiens; THP-1 cell; read-out: inhibition of TNF-α production IC50. Here is the method: (§1) TNF-α activity assays. The protein expression levels of TNF-α were measured by using an enzyme-linked immunosorbent assay (ELISA) kit according to the manufacturer's instructions (Diaclone). Absorbance was read at 450 nm on a spectrophotometric ELISA plate reader (Anthos 2020, Version 2.0.5, Biochrom Ltd.,UK). The percentage of TNF-α inhibition was calculated from the ratio between the observed TNF-α amount secreted by treated cells (nM) and the baseline secretion of TNF-α (nM). Dexamethasone (Sigma-Aldrich; 50-02-2), was used as positive control (0.01 µM). Results were normalized to the solvent control DMSO (0.1%).
A general note: An ELISA detects its analyte on a solid surface through an enzyme-linked reagent.

The test system of data set [6] is TNF-α. The data set can be described thus: TNF-α activity assay (ELISA) in NIH/3T3. Format: cell-based. The conditions noted are these: Mus musculus, NIH3T3; NIH/3T3 cell; read-out: inhibition of TNF-α production IC50. Here is the method:
as §1

In data set [7] the test system is NF-κB. The data set can be described thus: NF-κB activity assay in THP-1. It counts as cell-based. To be noted: Homo sapiens; THP-1 cell; read-out: inhibition of NF-κB production IC50.
For data set [8], the system named is NF-κB. The data set can be described thus: NF-κB activity assay (KBF-Luc luciferase reporter) in NIH/3T3. It counts as cell-based. The conditions noted are these: Mus musculus, NIH3T3; NIH/3T3 cell; read-out: inhibition of NF-κB production IC50. Here is the method:
NF-κB activity assays. The NIH/3T3-KBF-Luc cells has been stably transfected with the plasmid KBF-Luc plasmid, which contains three copies of NF-κB binding site (from major histocompatibility complex promoter), fused to a minimal simian virus 40 promoter driving the luciferase gene. Cells (1x10^4 for NIH/3T3-KBF-Luc) are seeded the day before the assay on 96-well plate. Then the cells are treated with the test substances for 15 min and then stimulated with 30 ng/mL TNF-α. After 6 h, the cells are washed twice with PBS and lysed in 50µl lysis buffer containing 25 mM Tris-phosphate (pH 7.8), 8 mM MgCl2, 1 mM DTT, 1% Triton X-100, and 7% glycerol during 15 min at RT in a horizontal shaker. Luciferase activity is measured using a GloMax 96 microplate luminometer (Promega) following the instructions of the luciferase assay kit (Promega, Madison, WI, USA). The RLU is calculated and the results are expressed as percentage of inhibition of NF-κB activity induced by TNF-α (100% activation). The experiments for each concentration of the test items will be done in triplicate wells.
In general terms: Reporter assays use an easily measured gene product as a stand-in for the process of interest.

The subject of data set [9] is STAT3. The data set can be described thus: STAT3 activity assay (HeLa-STAT3-luc luciferase reporter). It counts as cell-based. To be noted: HeLa-STAT3-Luc cells, IFNγ 25 U/mL, 6 h; read-out: inhibition of IFNγ-induced STAT3 activation IC50. Here is the method: STAT3 activity assay. The HeLa-STAT3-luc cells have been stably transfected with the plasmid 4xM67 pTATA TK-Luc. Cells (15 x10^3 cells/mL) are seeded 96-well plate the day before the assay. Then the cells are treated with the compound for 15 min and then stimulated with IFN-γ 25 IU/mL. After 6 h, the cells are washed twice with PBS and lysed in 50 µL lysis buffer containing 25 mM Tris-phosphate (pH 7.8), 8 mM MgCl2, 1 mM DTT, 1% Triton X-100, and 7% glycerol during 15 min at RT in a horizontal shaker. Luciferase activity was measured using GloMax 96 microplate luminometer (Promega) following the instructions of the luciferase assay kit (Promega, Madison, WI, USA). The RLU is calculated and the results are expressed as percentage of inhibition of STAT3 activity induced by IFN-γ (100% activation). The experiments for each concentration of the test items will be done in triplicate wells.

The subject of data set [10] is HIF-1α. The data set can be described thus: HIF-1α activity assay (NIH/3T3-EPO-luc luciferase reporter). Format: cell-based. To be noted: 6 h, read-out: inhibition of DFX-induced activation of EPO-Luc (surrogated marker of HIF-1α stabilization) IC50. Here is the method:
HIF-1α activity assay. The NIH/3T3-EPO-luc cells have been stably transfected with the plasmid Epo-Luc plasmid. The EPO-Hypoxia Response Element (HRE)-luciferase reporter plasmid contains three copies of the HRE consensus sequence from the promoter of the erythropoietin gene in the pGL3 vector. Cells (1x10^4 for NIH/3T3-EPO-luc) are seeded the day before the assay. The next day, the cells are stimulated either with the compound or Desferrioxamine (DFX) 150 µM as a positive control. After 6 hours of stimulation the cells are lysed in 25 mM Tris-phosphate pH 7.8, 8 mM MgCl2, 1 mM DTT, 1% Triton X-100, and 7% glycerol during 15 min at RT in a horizontal shaker. Luciferase activity is measured using a GloMax 96 microplate luminometer (Promega) following the instructions of the luciferase assay kit (Promega, Madison, WI, USA). The RLU is calculated and the results are expressed as percentage of inhibition induction/inhibition of EPO-luc activity. The experimentsfor each concentration of the test items will be done in triplicate wells.

Data set [11] has as its target T1, tyrosinase (Mus musculus, UniProt P11344).
T1 construct: To measure the tyrosinase activity of the cells, the B16-F10 cells treated for 3 days; endogenous in cells; host or cells: B16-F10 melanoma cells
T1 sequence (P11344 19-533): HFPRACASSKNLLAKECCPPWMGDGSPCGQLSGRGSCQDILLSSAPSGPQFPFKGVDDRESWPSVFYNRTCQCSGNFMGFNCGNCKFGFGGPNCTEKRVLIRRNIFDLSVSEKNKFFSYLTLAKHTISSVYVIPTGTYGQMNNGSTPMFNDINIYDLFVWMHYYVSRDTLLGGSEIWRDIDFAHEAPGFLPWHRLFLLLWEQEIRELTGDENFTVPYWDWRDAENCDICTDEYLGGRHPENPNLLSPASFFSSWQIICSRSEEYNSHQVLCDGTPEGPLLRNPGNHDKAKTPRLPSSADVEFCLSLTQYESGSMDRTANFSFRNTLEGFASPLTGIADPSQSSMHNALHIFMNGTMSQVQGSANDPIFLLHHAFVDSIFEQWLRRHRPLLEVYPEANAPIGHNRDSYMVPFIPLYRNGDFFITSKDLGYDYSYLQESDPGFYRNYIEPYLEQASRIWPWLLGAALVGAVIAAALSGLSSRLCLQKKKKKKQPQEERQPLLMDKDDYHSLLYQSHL
The data set can be described thus: Tyrosinase activity assay in B16-F10 melanoma cells. Format: cell-based. The conditions noted are these: 72 h treatment, read-out: inhibits melanin synthesis IC50. Here is the method: Tyrosinase activity assay. To measure the tyrosinase activity of the cells, the B16-F10 cells treated for 3 days with several doses of the compound is lysed by incubation at 4°C for 30 min in lysis buffer (20 mM sodium phosphate, pH 6.8, 1% Triton X-100, 1 mM PMSF, 1 mM EDTA) containing protease inhibitors cocktail. The lysates are centrifuged at 15,000 × g for 10 min to obtain the supernatant as the source of tyrosinase. The reaction mixture contained 20 mM phosphate buffer, pH 6.8, 1.25 mM L-DOPA (Sigma-Aldrich). After incubation at 37°C for 2 h, dopachrome formation is monitored by measuring absorbance at a wavelength of 475 nm in a microplatereader (TECAN). Kojic acid 2 mM is used as a positive control.

With `CCCCCC1=NN(C(=O)CCO)OC(CCCCC)C1` (stereo not drawn) [ODZN, 1-(4,6-dipentyl-5,6-dihydro-2H-1,2,3-oxadiazin-2-yl)-3-hydroxypropan-1-one], the cytotoxicity result in data set [1] is reported as “no cytotoxicity”. For the same compound, the pIC50 in data set [2] (cell-free assay (DPPH)) is 8.01; in [3], 7.98; in data set [4], 8.48; in [5], 7.83; in [6], 8.09; in data set [7], 7.25. The pIC50 in [8] is 7.50; in [9] it was 8.81; in data set [10], 8.02; in data set [11], 7.77.
On to `Cc1c(C)c2c(c(C)c1O)CCC(C)(C(=O)O)O2` (stereo not drawn) [Trolox, reference compound], for which, in data set [2] (DPPH free radical assay, standard, 200 µM positive control), the antioxidant activity was 92.08%.

By pIC50 is commonly meant the negative decadic logarithm of the IC50, by convention in mol/L.
